Assays:
A-431 [B-Raf wildtype] = experiment: Anti-proliferative activity, SRB assay, 72 hours; type: cell-based; settings: Homo sapiens, read-out: CELLULAR IC50 [μM] A-431 [B-Raf wildtype]
Method: (§1) Cells were exposed to the test compounds at various concentrations appropriate to determine an IC50, for 72 hours, and cell proliferation was measured using the SRB assay according to Shekan et al (J Natl Cancer Inst (1990) 82, 1107-112) in order to estimate the IC50 values shown in Table 3.
(§2) Briefly, cells were plated in 96 well dishes 24 hours prior to compound addition at the densities specified in Table 11.1.
(§3) The assay was terminated with the addition of ice cold 10% TCA after growth medium has been removed and the plates were incubated over night at 4° C. The plates were then washed 5 times with water and 100 μl of a Sulforhodamine B solution ([…]) was added to each well. The plates were then incubated for 10 minutes at room temperature before removal of unbound dye by washing with 1% acetic acid. The bound dye was solubilized with 10 mM Trizma base and the absorbance read at OD520.
(§4) Inhibitory activity of the compounds was calculated as % inhibition of cell proliferation compared to cells treated with the solvent (DMSO).

[1] = system: HT-29 [B-Raf V600E mutant]; experiment: Anti-proliferative activity, SRB assay, 72 hours; type: cell-based; settings: Homo sapiens, read-out: CELLULAR IC50 [μM] HT-29 [B-Raf V600E mutant]
Method: We observed the surprising finding that compounds of the invention were useful in inhibiting proliferation of HT-29 tumor cells (see Table 3).
as §1, §2, §3, §4

p38 = biological target: T1, p38 (Homo sapiens, UniProt Q16539); experiment: Biochemical inhibition, standard selectivity panel (Proteros); parameters: dose or concentration left out as unconfirmed
T1 construct: purchased Proteros biostructures GmbH (selectivity panel service)
T1 sequence (Q16539 whole entry): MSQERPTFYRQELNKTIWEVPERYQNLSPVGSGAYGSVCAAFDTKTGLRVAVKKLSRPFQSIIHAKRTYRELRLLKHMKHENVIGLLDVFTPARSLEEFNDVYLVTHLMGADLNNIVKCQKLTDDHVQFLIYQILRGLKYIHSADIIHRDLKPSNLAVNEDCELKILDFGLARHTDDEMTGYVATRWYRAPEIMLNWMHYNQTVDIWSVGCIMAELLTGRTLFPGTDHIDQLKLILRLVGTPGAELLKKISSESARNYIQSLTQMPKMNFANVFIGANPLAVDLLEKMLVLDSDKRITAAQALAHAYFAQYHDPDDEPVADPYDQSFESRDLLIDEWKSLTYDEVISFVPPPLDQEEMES
Method: (§5) For example, selected compound of the present invention were tested in a standard selectivity panel including c-Raf, p38, and 22 other kinases (Proteros biostructures GmbH, Martinsried/Munich, Germany), under conditions of non-disclosure, non-dissemination and non-use.
(§6) In brief, selected compounds of the present invention were tested […] in triplicates against c-Raf, p38 as well as against Ab1, Akt1, Aur A, c-Kit, c-Raf, Cdk1/CycB, Chk1, FGFR3, Flt3, Fyn, IGF1-R, INSR, Lyn, MAPK-ERK1, PAK-4, PKCalpha, Plk1, Ret, ROCK2, RSK 1, c-Src, TIE2, and VEGF-R2.

C-Raf = biological target: T2, C-Raf (Homo sapiens, UniProt P04049); experiment: as above; parameters: dose or concentration left out as unconfirmed
T2 construct: purchased Proteros biostructures GmbH (selectivity panel service)
T2 sequence (P04049 whole entry): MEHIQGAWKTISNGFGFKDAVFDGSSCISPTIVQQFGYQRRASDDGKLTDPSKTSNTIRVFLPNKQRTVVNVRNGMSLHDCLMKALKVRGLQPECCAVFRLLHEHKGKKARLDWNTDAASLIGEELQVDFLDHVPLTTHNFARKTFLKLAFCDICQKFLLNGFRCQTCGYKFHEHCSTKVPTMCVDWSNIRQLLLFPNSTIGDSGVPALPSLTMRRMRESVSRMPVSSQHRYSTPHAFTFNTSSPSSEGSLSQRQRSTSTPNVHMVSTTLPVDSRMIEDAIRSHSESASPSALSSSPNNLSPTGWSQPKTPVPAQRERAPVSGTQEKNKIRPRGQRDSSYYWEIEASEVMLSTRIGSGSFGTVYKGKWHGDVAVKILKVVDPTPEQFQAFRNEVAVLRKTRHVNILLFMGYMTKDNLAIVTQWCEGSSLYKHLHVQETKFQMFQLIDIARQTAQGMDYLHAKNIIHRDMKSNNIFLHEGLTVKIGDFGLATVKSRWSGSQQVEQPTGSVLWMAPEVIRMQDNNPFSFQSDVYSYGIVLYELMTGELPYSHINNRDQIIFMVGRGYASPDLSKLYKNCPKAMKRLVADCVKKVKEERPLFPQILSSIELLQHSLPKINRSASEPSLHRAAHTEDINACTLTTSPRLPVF
Method: as §5, §6

| Structure (SMILES) | IC50 (A-431 [B-Raf wildtype]) | IC50 [1] | inhibition (p38) | inhibition (C-Raf) |
| --- | --- | --- | --- | --- |
| COc1ccc(NC(=O)Nc2ccc(Cl)c(-c3cc4cnc(NCCN(C)C)nc4n(OC)c3=O)c2)cc1Cl [Compound 4, 1-{4-Chloro-3-[2-(2-dimethylamino-ethylamino)-8-methoxy-7-oxo-7,8-dihydro-pyrido[2,3-d]pyrimidin-6-yl]-phenyl}-3-(3-chloro-4-methoxy-phenyl)-urea] | > 10 µM | < 10 µM | > 70% | > 70% |
| CCN(CC)c1cc(C(=O)Nc2ccc(Cl)c(-c3cc4cnc(NCCN(C)C)nc4n(OC)c3=O)c2)cc(Cl)n1 [Compound 8, 2-Chloro-N-(4-chloro-3-(2-(2-(dimethylamino)ethylamino)-8-methoxy-7-oxo-7,8-dihydropyrido[2,3-d]pyrimidin-6-yl)phenyl)-6-diethylamino-isonicotinamide] | < 10 µM | < 5 µM | > 70% | > 70% |
| COn1c(=O)c(-c2cc(NC(=O)c3ccc(Cl)c(Cl)c3)ccc2Cl)cc2cnc(NCCN(C)C)nc21 [Compound 10, 3,4-Dichloro-N-{4-chloro-3-[2-(2-dimethylamino-ethylamino)-8-methoxy-7-oxo-7,8-dihydro-pyrido[2,3-d]pyrimidin-6-yl]-phenyl}-benzamide] | > 10 µM | < 5 µM | > 70% | > 70% |
| COn1c(=O)c(-c2cc(NC(=O)Cc3ccc(Cl)c(C(F)(F)F)c3)ccc2Cl)cc2cnc(NCCN(C)C)nc21 [Compound 16, N-{4-Chloro-3-[2-(2-dimethylamino-ethylamino)-8-methoxy-7-oxo-7,8-dihydro-pyrido[2,3-d]pyrimidin-6-yl]-phenyl)-2-(4-chloro-3-trifluoromethyl-phenyl)-acetamide] | > 10 µM | < 5 µM | > 70% | > 70% |
| COn1c(=O)c(-c2cc(NC(=O)c3ccc(F)c(C(F)(F)F)c3)ccc2Cl)cc2cnc(NCCN(C)C)nc21 [Compound 17, N-{4-Chloro-3-[2-(2-dimethylamino-ethylamino)-8-methoxy-7-oxo-7,8-dihydro-pyrido[2,3-d]pyrimidin-6-yl]-phenyl)-4-fluoro-3-trifluoromethyl-benzamide] | > 10 µM | < 5 µM | > 70% | > 70% |
| COn1c(=O)c(-c2cc(NC(=O)c3cccc(Cl)c3)ccc2Cl)cc2cnc(NCCN(C)C)nc21 [Compound 18, 3-Chloro-N-{4-chloro-3-[2-(2-dimethylamino-ethylamino)-8-methoxy-7-oxo-7,8-dihydro-pyrido[2,3-d]pyrimidin-6-yl]-phenyl}-benzamide] | > 10 µM | < 10 µM | > 70% | > 70% |
| COn1c(=O)c(-c2ccc(NC(=O)c3ccc(Cl)c(OC(F)(F)F)c3)cc2Cl)cc2cnc(NCCN(C)C)nc21 [Compound 52, 4-Chloro-N-{3-chloro-4-[2-(2-dimethylamino-ethylamino)-8-methoxy-7-oxo-7,8-dihydro-pyrido[2,3-d]pyrimidin-6-yl]-phenyl}-3-trifluoromethoxy-benzamide] | < 10 µM | < 5 µM |  |  |
| COn1c(=O)c(-c2ccc(NC(=O)c3ccc(CN4CCN(C)CC4)cc3)cc2Cl)cc2cnc(NCCN(C)C)nc21 [Compound 53, N-{3-Chloro-4-[2-(2-dimethylamino-ethylamino)-8-methoxy-7-oxo-7,8-dihydro-pyrido[2,3-d]pyrimidin-6-yl]-phenyl}-4-(4-methyl-piperazin-1-ylmethyl)-benzamide] | > 10 µM | > 10 µM |  |  |
| COn1c(=O)c(-c2ccc(NC(=O)c3ccnc(N4CCOCC4)c3)cc2Cl)cc2cnc(NCCN(C)C)nc21 [Compound 54, N-{3-Chloro-4-[2-(2-dimethylamino-ethylamino)-8-methoxy-7-oxo-7,8-dihydro-pyrido[2,3-d]pymidin-6-yl]-phenyl}-2-morpholin-4-yl-isonicotinamide] | > 10 µM | > 10 µM |  |  |
| COn1c(=O)c(-c2ccc(NC(=O)c3ccc(OCc4cccc(F)c4)c(Cl)c3)cc2Cl)cc2cnc(NCCN(C)C)nc21 [Compound 55, 3-Chloro-N-{3-chloro-4-[2-(2-dimethylamino-ethylamino)-8-methoxy-7-oxo-7,8-dihydro-pyrido[2,3-d]pyrimidin-6-yl]-phenyl}-4-(3-fluoro-benzyloxy)-benzamide] | < 10 µM | < 5 µM |  |  |
| COn1c(=O)c(-c2ccc(NC(=O)c3cc(C(C)(C)C)nn3-c3ccccc3)cc2Cl)cc2cnc(NCCN(C)C)nc21 [Compound 56, 5-tert-Butyl-2-phenyl-2H-pyrazole-3-carboxylic acid {3-chloro-4-[2-(2-dimethylamino-ethylamino)-8-methoxy-7-oxo-7,8-dihydro-pyrido[2,3-d]pyrimidin-6-yl]-phenyl}-amide] | < 10 µM | < 5 µM |  |  |
| COn1c(=O)c(-c2ccc(NC(=O)Cc3ccc(Cl)c(C(F)(F)F)c3)cc2Cl)cc2cnc(NCCN(C)C)nc21 [Compound 57, N-{3-Chloro-4-[2-(2-dimethylamino-ethylamino)-8-methoxy-7-oxo-7,8-dihydro-pyrido[2,3-d]pyrimidin-6-yl]-phenyl}-2-(4-chloro-3-trifluoromethyl-phenyl)-acetamide] | < 10 µM | < 10 µM |  |  |
| COn1c(=O)c(-c2cc(NC(=O)c3cc(Cl)nc(N4CCCC4)c3)ccc2Cl)cc2cnc(NCCN(C)C)nc21 [Compound 58, 2-Chloro-N-(4-chloro-3-(2-(2-(dimethylamino)ethylamino)-8-methoxy-7-oxo-7,8-dihydropyrido[2,3-d]pyrimidin-6-yl)phenyl)-6-pyrrolidin-1-yl-isonicotinamide] | < 10 µM | < 5 µM |  |  |
| COn1c(=O)c(-c2cc(NC(=O)c3cc(Cl)nc(N(C)C)c3)ccc2Cl)cc2cnc(NCCN(C)C)nc21 [Compound 59, 2-Chloro-N-(4-chloro-3-(2-(2-(dimethylamino)ethylamino)-8-methoxy-7-oxo-7,8-dihydropyrido[2,3-d]pyrimidin-6-yl)phenyl)-6-dimethylamino-isonicotinamide] | > 10 µM | < 5 µM |  |  |
| COn1c(=O)c(-c2cc(NC(=O)c3cc(Cl)nc(N4CCCCC4)c3)ccc2Cl)cc2cnc(NCCN(C)C)nc21 [Compound 60, 2-Chloro-N-(4-chloro-3-(2-(2-(dimethylamino)ethylamino)-8-methoxy-7-oxo-7,8-dihydropyrido[2,3-d]pyrimidin-6-yl)phenyl)-6-pyperidin-1-yl-isonicotinamide] | < 10 µM | < 5 µM |  |  |
| COn1c(=O)c(-c2cc(NC(=O)c3cc(Cl)nc(N4CCN(C)CC4)c3)ccc2Cl)cc2cnc(NCCN(C)C)nc21 [Compound 62, 2-Chloro-N-(4-chloro-3-(2-(2-(dimethylamino)ethylamino)-8-methoxy-7-oxo-7,8-dihydropyrido[2,3-d]pyrimidin-6-yl)phenyl)-6-(4-methyl-piperazin-1-yl)-isonicotinamide] | > 10 µM | < 5 µM |  |  |
| CCNc1cc(C(=O)Nc2ccc(Cl)c(-c3cc4cnc(NCCN(C)C)nc4n(OC)c3=O)c2)cc(Cl)n1 [Compound 63, 2-Chloro-N-(4-chloro-3-(2-(2-(dimethylamino)ethylamino)-8-methoxy-7-oxo-7,8-dihydropyrido[2,3-d]pyrimidin-6-yl)phenyl)-6-ethylamino-isonicotinamide] | > 10 µM | < 5 µM |  |  |
| COn1c(=O)c(-c2cc(NC(=O)c3cc(Cl)nc(NCCN(C)C)c3)ccc2Cl)cc2cnc(NCCN(C)C)nc21 [Compound 65, 2-Chloro-N-(4-chloro-3-(2-(2-(dimethylamino)ethylamino)-8-methoxy-7-oxo-7,8-dihydropyrido[2,3-d]pyrirnidin-6-yl)phenyl)-6-(2-dimethylaminoethylamino)-isonicotinamide] | > 10 µM | < 10 µM |  |  |
| COn1c(=O)c(-c2cc(NC(=O)c3cc(Cl)nc(NC4CCN(C)CC4)c3)ccc2Cl)cc2cnc(NCCN(C)C)nc21 [Compound 66] | > 10 µM | < 10 µM |  |  |
| COn1c(=O)c(-c2cc(NC(=O)c3cc(Cl)nc(NCc4ccc(N5CCN(C)CC5)cc4)c3)ccc2Cl)cc2cnc(NCCN(C)C)nc21 [Compound 67, 2-Chloro-N-(4-chloro-3-(2-(2-(dimethylamino)ethylamino)-8-methoxy-7-oxo-7,8-dihydropyrido[2,3-d]pyrimidin-6-yl)phenyl)-6-(4-(4-methylpiperazin-1-yl)-benzylamino)-isonicotinamide] | < 10 µM | < 5 µM |  |  |
